This passage reports IC50 results from BindingDB's records for patent US20250313563 (The Broad Institute, 2025).

The target of assay [1] is Glycogen synthase kinase-3 beta (Homo sapiens, UniProt P49841). Description: TR-FRET Assay. Summed up: (§1)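 Compound was preincubated 30 min in assay buffer before the kinase reaction, which was quenched with EDTA. Phosphorylation was detected by TR-FRET after adding a solution of 40 nM streptavidin-d2 and 2 nM Tb-labelled anti-pSer641 antibody.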
For assay [2], the target named is Glycogen synthase kinase-3 alpha (Homo sapiens, UniProt P49840). As to the kind of experiment: TR-FRET Assay. Summed up: as §1
A general note: Time-resolved FRET reads energy transfer from a long-lived donor to a nearby acceptor.

Values joined by “and” are separate entries in the source; they are usually repeats but may differ in a detail not shown here. Equal entries are not always repeated. A value given as a limit tells only on which side of the number the result lay.

Chain of Glycogen synthase kinase-3 alpha (P49840 whole entry): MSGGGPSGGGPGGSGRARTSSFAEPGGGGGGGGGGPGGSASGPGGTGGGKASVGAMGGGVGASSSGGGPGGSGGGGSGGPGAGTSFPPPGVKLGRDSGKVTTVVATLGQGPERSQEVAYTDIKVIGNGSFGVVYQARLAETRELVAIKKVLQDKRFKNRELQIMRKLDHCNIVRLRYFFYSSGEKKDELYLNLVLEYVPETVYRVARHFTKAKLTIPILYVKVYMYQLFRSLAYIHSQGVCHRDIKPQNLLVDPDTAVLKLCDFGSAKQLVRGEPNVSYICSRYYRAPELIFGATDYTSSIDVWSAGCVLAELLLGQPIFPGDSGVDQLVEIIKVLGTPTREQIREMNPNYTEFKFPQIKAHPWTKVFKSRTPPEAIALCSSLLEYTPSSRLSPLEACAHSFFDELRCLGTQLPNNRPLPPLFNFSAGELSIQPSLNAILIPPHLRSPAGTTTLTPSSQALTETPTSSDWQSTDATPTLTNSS
Chain of Glycogen synthase kinase-3 beta (P49841 whole entry): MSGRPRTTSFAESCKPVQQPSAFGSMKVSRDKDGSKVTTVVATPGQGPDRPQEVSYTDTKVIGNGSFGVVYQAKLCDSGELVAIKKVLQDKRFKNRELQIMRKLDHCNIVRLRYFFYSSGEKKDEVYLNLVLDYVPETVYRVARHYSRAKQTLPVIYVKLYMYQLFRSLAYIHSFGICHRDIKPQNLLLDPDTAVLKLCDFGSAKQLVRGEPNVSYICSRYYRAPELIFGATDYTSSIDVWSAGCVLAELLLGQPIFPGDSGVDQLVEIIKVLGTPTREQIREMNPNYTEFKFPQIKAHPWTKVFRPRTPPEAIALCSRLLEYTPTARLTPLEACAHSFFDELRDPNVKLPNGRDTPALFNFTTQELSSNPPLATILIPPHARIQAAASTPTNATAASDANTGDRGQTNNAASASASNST

Consider `CC[C@@]1(c2cccc(-c3ccnn3C)c2)C2=CN=NC2NC2=C1C(=O)N[C@@]1(CCCOC1)C2` (stereo partly drawn) [US20250313563, Compound 949115], for which the IC50 was < 0.1 µM and 1 to 5 µM in assay [1]; < 0.1 µM and 0.1 to 1 µM in assay [2].

`CC1(C)CC(=O)C2=C(C1)NC1N=NC(C(F)(F)F)=C1C21CCCc2ccccc21` (stereo not drawn) [US20250313563, Compound 790745]: the half-maximal inhibitory concentration (IC50) in assay [1] and in assay [2] was less than 0.1 µM each time.

As to `CC[C@]1(c2ccccc2)C2=CN=NC2NC2=C1C(=O)[C@H](F)C(C)(C)C2` (stereo partly drawn) [US20250313563, Compound 826768], the 50% inhibitory concentration (IC50) was 0.1 to 1 µM in assay [1] and less than 0.1 µM in assay [2].

In the case of `CC[C@@]1(c2cccc(-c3ccncc3)c2)C2=CN=NC2NC2=C1C(=O)C[C@H](C)C2` (stereo partly drawn) [US20250313563, Compound 874316], the concentration for half-maximal inhibition (IC50) is 1 to 5 µM in assay [1] and 0.1 to 1 µM in assay [2].

In the case of `CCC1(c2ccccc2)C2=C(N=NC2)NC2=C1C(=O)CC1(CCCC1)C2` (stereo not drawn) [US20250313563, Compound 785737], the concentration for half-maximal inhibition (IC50) is 0.1 to 1 µM in assay [1] and less than 0.1 µM in assay [2].

With `CC[C@@]1(c2cccc(C3=CN=NC3)c2)C2=C(CC(C)(C)NC2=O)NC2N=NC(C(F)(F)F)=C21` (stereo partly drawn) [US20250313563, Compound 948312], the half-inhibitory concentration (IC50) in assay [1] was 0.1 to 1 µM; in assay [2], less than 0.1 µM.

With `CC[C@@]1(c2cccc(-c3ccnc(C)c3)c2)C2=CN=NC2NC2=C1C(=O)NC1(CCC1)C2` (stereo partly drawn) [US20250313563, Compound 949520], the IC50 in assay [1] was 0.1 to 1 µM; in assay [2] it was less than 0.1 µM.

`Cn1cc(S(=O)(=O)N2CC[C@@]3(C2)C2=C(N=NC2)NC2=C3C(=O)CC(C)(C)C2)cn1` [US20250313563, Compound 943483]: the 50% inhibitory concentration (IC50) in assay [1] and in assay [2] was less than 0.1 µM in each case.

Turning to `CC1(C)CC(=O)C2=C(C1)NC1N=NC=C1C21CCCN(c2ccncn2)CC1` (stereo not drawn) [US20250313563, Compound 917145], the 50% inhibitory concentration (IC50) in assay [1] and in assay [2] was 1 to 5 µM each time.

For `CCC1(c2cccc(S(=O)(=O)Cc3ccccc3)c2)C2=CN=NC2NC2=C1C(=O)CC(C)(C)C2` (stereo not drawn) [US20250313563, Compound 913258], the concentration for half-maximal inhibition (IC50) in assay [1] and in assay [2] was less than 0.1 µM in each case.

Regarding `CCC1(c2cccc(-c3ccncc3OC)c2)C2=CN=NC2NC2=C1C(=O)CC(C)(C)C2` (stereo not drawn) [US20250313563, Compound 932627], the IC50 in assay [1] and in assay [2] was less than 0.1 µM each time.

With `CCC1(c2cccc(C(F)(F)F)c2)C2=CN=NC2NC2=C1C(=O)NCC2` (stereo not drawn) [US20250313563, Compound 870263], the IC50 is more than 5 µM in assay [1] and 0.1 to 1 µM in assay [2].

Consider `CC[C@@]1(c2cccc(-c3ccnc4c3CCC4)c2)C2=C(CC(C)(C)NC2=O)NC2N=NC(C(F)(F)F)=C21` (stereo partly drawn) [US20250313563, Compound 948778], for which the half-inhibitory concentration (IC50) in assay [1] was < 0.1 µM and 1 to 5 µM; in assay [2], < 0.1 µM and 0.1 to 1 µM.

Regarding `CCC1(c2cccc(-c3ccnc(C(C)O)c3)c2)C2=CN=NC2NC2=C1C(=O)CC(C)(C)C2` (stereo not drawn) [US20250313563, Compound 944029], the results for the IC50 in assay [1] and in assay [2] were 0.1 to 1 µM and less than 0.1 µM, respectively.

For `COc1ccc(S(=O)(=O)N2CCC3(CC2)C2=C(N=NC2)NC2=C3C(=O)CC(C)(C)C2)cn1` [US20250313563, Compound 945666], the IC50 in assay [1] and in assay [2] was less than 0.1 µM in each case.

As to `CN(C)C(=O)c1ccc(S(=O)(=O)N2CCC3(CC2)C2=C(N=NC2)NC2=C3C(=O)CC(C)(C)C2)cc1` [US20250313563, Compound 945659], the half-maximal inhibitory concentration (IC50) in assay [1] and in assay [2] was less than 0.1 µM each time.

Take `CCC1(c2cccc(N3CCOCC3)c2)C2=CN=NC2NC2=C1C(=O)NC(C)(C)C2` (stereo not drawn) [US20250313563, Compound 945602]: the IC50 in assay [1] is more than 5 µM; in assay [2], 1 to 5 µM.

Consider `CC[C@]1(c2cccc(C(F)(F)F)c2)C2=C(N=NC2)NC2=C1C(=O)N(Cc1ccccc1)[C@H]2C` [US20250313563, Compound 930331], for which the IC50 in assay [1] is 0.1 to 1 µM; in assay [2], less than 0.1 µM.

As for `C[C@@H]1COCC[C@@]12C1=CN=NC1NC1=C2C(=O)CC(C)(C)C1` (stereo partly drawn) [US20250313563, Compound 924310], the half-maximal inhibitory concentration (IC50) in assay [1] and in assay [2] was more than 5 µM in each case.

On to `CC[C@]1(c2cccc(N3CCOCC3)c2)C2=C(CC(C)(C)NC2=O)NC2N=NC(C(F)(F)F)=C21` (stereo partly drawn) [US20250313563, Compound 949000], for which the IC50 in assay [1] and in assay [2] was 0.1 to 1 µM each time.

As to `CCn1nc(C)c(S(=O)(=O)N2CCC3(CC2)C2=C(N=NC2)NC2=C3C(=O)CC(C)(C)C2)c1C` [US20250313563, Compound 945679], the 50% inhibitory concentration (IC50) in assay [1] lay in the range of 1 to 5 µM; in assay [2], 0.1 to 1 µM.

Regarding `CC1(C)CC(=O)C2=C(C1)NC1=C(CN=N1)[C@@]21CCO[C@H](C(C)(C)C)C1` [US20250313563, Compound 912107], the IC50 in assay [1] and in assay [2] was more than 5 µM in each case.

Regarding `CCc1cccc(C2(CC)C3=C(N=NC3)NC3=C2C(=O)CC(C)(C)C3)c1` (stereo not drawn) [US20250313563, Compound 949083], the half-maximal inhibitory concentration (IC50) in assay [1] was 0.1 to 1 µM; in assay [2] it was less than 0.1 µM.

As to `CCC1(c2cccc(-c3ccnc(O)c3)c2)C2=CN=NC2NC2=C1C(=O)CC(C)(C)C2` (stereo not drawn) [US20250313563, Compound 913352], the IC50 in assay [1] and in assay [2] was less than 0.1 µM in each case.

With `CC[C@]1(c2cccc(-c3ccnn3C3CC3(F)F)c2)C2=CN=NC2NC2=C1C(=O)NC(C)(C)C2` (stereo partly drawn) [US20250313563, Compound 949518], the IC50 was more than 5 µM in assay [1] and 0.1 to 1 µM in assay [2].

In the case of `CCC1(c2cccc(-c3ccncc3F)c2)C2=C(CC(C)(C)NC2=O)NC2N=NC(F)=C21` (stereo not drawn) [US20250313563, Compound 948999], the IC50 is 0.1 to 1 µM in assay [1] and less than 0.1 µM in assay [2].

In the case of `CC[C@]1(c2cccc(Br)c2)C2=CN=NC2NC2=C1C(=O)C[C@@H](C)C2` (stereo partly drawn) [US20250313563, Compound 810484], the IC50 in assay [1] and in assay [2] was more than 5 µM throughout.

`CC1(C)CC(=O)C2=C(C1)NC1=C(CN=N1)[C@]21CCOC1` [US20250313563, Compound 877313]: the 50% inhibitory concentration (IC50) in assay [1] and in assay [2] was 0.1 to 1 µM throughout.

Consider `CC1(C)CC2=C(C(=O)C1F)[C@]1(CC[C@H](C(F)(F)F)CC1)C1=C(N=NC1)N2` (stereo partly drawn) [US20250313563, Compound 917133], for which the IC50 in assay [1] and in assay [2] was less than 0.1 µM throughout.

`CCC1(c2cccc(N3CCCc4ncccc43)c2)C2=CN=NC2NC2=C1C(=O)CC(C)(C)C2` (stereo not drawn) [US20250313563, Compound 889639]: the IC50 in assay [1] was < 0.1 µM and 0.1 to 1 µM; in assay [2], less than 0.1 µM.

For `CCC1(c2cccc(-c3cc(C)ncc3C)c2)C2=C(CC(C)(C)CC2=O)NC2N=NC(C(F)(F)F)=C21` (stereo not drawn) [US20250313563, Compound 945530], the IC50 in assay [1] and in assay [2] was less than 0.1 µM in each case.

On to `CC[C@]1(c2cccc(-c3cn(C)nc3C)c2)C2=C(CC(C)(C)NC2=O)NC2N=NC(C(F)F)=C21` (stereo partly drawn) [US20250313563, Compound 950490], for which the IC50 in assay [1] and in assay [2] was 0.1 to 1 µM throughout.

Regarding `CC1(C)CC(=O)C2=C(C1)NC1=C(CN=N1)[C@]21CC[C@@H](c2ccncc2)CC1` [US20250313563, Compound 949320], the half-maximal inhibitory concentration (IC50) in assay [1] lay in the range of 1 to 5 µM; in assay [2] it was 0.1 to 1 µM.

For `CC1(C)CC(=O)C2=C(C1)NC1=C(CN=N1)C21CCN(S(=O)(=O)c2c(F)cc(F)cc2F)CC1` [US20250313563, Compound 947484], the IC50 in assay [1] and in assay [2] was less than 0.1 µM in each case.

By IC50 is commonly meant the concentration that inhibits the measured activity by half.
